Data taken from the supplement of paper PMC4862054.

How the values were obtained:
Settings in all cases: incubation time: 72 h
[1] = test system: BT-474; assay: normalised response (% of control), CellTox Green; higher = less cell death (100 = DMSO, 0 = benzethonium chloride kill control)
In short: (§1)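 Every value is a normalised signal taken at one concentration of a dilution series. Compound was placed in 384-well plates at 5 concentrations in 10-fold steps over a compound-specific 10,000-fold range, and 20 µl of breast cancer cell suspension was seeded onto it. After 72 h, CellTox Green fluorescence (485/520 nm) was measured first and CellTiter-Glo luminescence second, following 10 min at room temperature. Each plate was scaled to 0.1 % DMSO (100) and a positive kill control (0).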

[2] = test system: BT-549; assay: as above
In short: as §1

[3] = test system: CAL-120; assay: as above
In short: as §1

[4] = test system: CAL-148; assay: as above
In short: as §1

[5] = test system: CAL-51; assay: as above
In short: as §1

[6] = test system: CAL-85-1; assay: as above
In short: as §1

[7] = test system: DU-4475; assay: as above
In short: as §1

[8] = test system: HCC1143; assay: as above
In short: as §1

[9] = test system: HCC1599; assay: as above
In short: as §1

[10] = test system: HCC1937; assay: as above
In short: as §1

[11] = test system: HDQ-P1; assay: as above
In short: as §1

[12] = test system: MCF-10A; assay: as above
In short: as §1

[13] = test system: MDA-MB-231; assay: as above
In short: as §1

[14] = test system: MDA-MB-436; assay: as above
In short: as §1

[15] = test system: MDA-MB-453; assay: as above
In short: as §1

[16] = test system: MDA-MB-468; assay: as above
In short: as §1

[17] = test system: MFM-223; assay: as above
In short: as §1

[18] = test system: BT-474; assay: normalised response (% of control), CellTiter-Glo; higher = more viable cells (100 = DMSO, 0 = benzethonium chloride kill control)
Procedure: (§2)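 DSRT, 72 h incubation, CellTox Green / CellTiter-Glo readout. Signal is normalised to DMSO and benzethonium chloride controls. Value is the normalised response at dose 3.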

[19] = test system: BT-549; assay: as above
Procedure: as §2

[20] = test system: CAL-120; assay: as above
Procedure: as §2

[21] = test system: CAL-148; assay: as above
Procedure: as §2

[22] = test system: CAL-51; assay: as above
Procedure: as §2

[23] = test system: CAL-85-1; assay: as above
Procedure: as §2

[24] = test system: DU-4475; assay: as above
Procedure: as §2

[25] = test system: HCC1143; assay: as above
Procedure: as §2

[26] = test system: HCC1599; assay: as above
Procedure: as §2

[27] = test system: HCC1937; assay: as above
Procedure: as §2

[28] = test system: HDQ-P1; assay: as above
Procedure: as §2

[29] = test system: Hs578T; assay: as above
Procedure: as §2

[30] = test system: MCF-10A; assay: as above
Procedure: as §2

[31] = test system: MDA-MB-231; assay: as above
Procedure: as §2

[32] = test system: MDA-MB-436; assay: as above
Procedure: as §2

[33] = test system: MDA-MB-453; assay: as above
Procedure: as §2

[34] = test system: MDA-MB-468; assay: as above
Procedure: as §2

[35] = test system: MFM-223; assay: as above
Procedure: as §2

[36] = test system: SK-BR-3; assay: as above
Procedure: as §2

[37] = test system: Hs578T; assay: normalised response (% of control), CellTox Green; higher = less cell death (100 = DMSO, 0 = benzethonium chloride kill control)
In short: as §1

| SMILES | normalised response [1] | normalised response [2] | normalised response [3] | normalised response [4] | normalised response [5] | normalised response [6] | normalised response [7] | normalised response [8] | normalised response [9] | normalised response [10] | normalised response [11] | normalised response [12] | normalised response [13] | normalised response [14] | normalised response [15] | normalised response [16] | normalised response [17] | normalised response [18] | normalised response [19] | normalised response [20] | normalised response [21] | normalised response [22] | normalised response [23] | normalised response [24] | normalised response [25] | normalised response [26] | normalised response [27] | normalised response [28] | normalised response [29] | normalised response [30] | normalised response [31] | normalised response [32] | normalised response [33] | normalised response [34] | normalised response [35] | normalised response [36] | normalised response [37] |
| --- | --- | --- | --- | --- | --- | --- | --- | --- | --- | --- | --- | --- | --- | --- | --- | --- | --- | --- | --- | --- | --- | --- | --- | --- | --- | --- | --- | --- | --- | --- | --- | --- | --- | --- | --- | --- | --- |
| CC1(C)CNc2cc(NC(=O)c3cccnc3NCc3ccncc3)ccc21 [Motesanib] (100 nM) | 99% | 106% | 95.2% | 94.2% | 107% | 110% | 97.9% | 100% | 103% | 99.2% | 111% | 100% | 101% | 91.1% | 105% | 93% | 92.8% | 101% | 99.7% | 99.9% | 86.2% | 107% | 89.5% | 102% | 95.4% | 114% | 96.8% | 99.5% | 96.3% | 92.5% | 101% | 96.9% | 99.8% | 91.8% | 93.8% | 92.1% |  |
| COc1cc(F)c(F)c(Nc2ccc(I)cc2F)c1NS(=O)(=O)C1(C[C@H](O)CO)CC1 [Refametinib] (100 nM) | 97.4% | 102% | 92.4% | 58.6% | 79.7% | 86.7% | 84% | 95.8% | 93.7% | 92.5% | 81.3% | 93.4% |  |  | 101% |  | 97.7% | 81% | 105% | 87.7% | 87.2% | 88.3% | 89.7% | 35.1% | 89.1% | 99.6% | 88% | 68.6% | 87.4% | 37.9% | 83.6% | 91.6% | 97.6% | 82.2% | 88.9% | 90.6% | 103% |
| C[C@]12CC[C@@H]3c4ccc(OC(=O)N(CCCl)CCCl)cc4CC[C@H]3[C@@H]1CC[C@@H]2O [Estramustine] (100 nM) | 95.8% | 103% | 100% | 102% | 81% | 95.6% | 96.8% | 84.8% | 91.3% | 70.5% | 89.7% | 83.8% |  | 83.2% | 103% | 97.9% | 99.3% | 98.1% | 104% | 101% | 76.8% | 86.7% | 94.6% | 93.3% | 100% | 103% | 95.2% | 102% | 93% | 88.2% | 95.4% | 98.4% | 83.1% | 95.2% | 91.4% | 85.3% |  |
| CC(=O)N(O)CCCCCNC(=O)CCC(=O)N(O)CCCCCNC(=O)CCC(=O)N(O)CCCCCN [Deferoxamine] (100 nM) | 94.5% | 97.8% | 103% | 92.4% | 104% | 104% | 98.1% | 102% | 92.5% |  | 96.1% | 90.1% | 78.7% | 95.5% | 102% | 114% | 102% | 95% | 100% | 99.2% | 88.7% | 96.2% | 95% | 93.9% | 99.1% | 102% | 89.7% | 101% | 101% | 96.8% | 93.2% | 102% | 84.4% | 95.8% | 93.5% | 88.2% | 94.9% |
| CC[C@@H]1C(=O)OC[C@@H]1Cc1cncn1C [Pilocarpine] (400 nM) | 98.4% | 93.4% | 98.8% | 97.1% | 91.1% | 110% | 95.8% | 104% | 99.5% | 70.4% | 91% | 98.6% | 106% | 70% | 93.6% | 73.4% | 99.6% | 94.5% | 102% | 96.6% | 86% | 63.4% | 97% | 97.7% | 98.7% | 85.9% | 96.7% | 98.3% | 97.8% | 101% | 94.1% | 88.3% | 96.1% | 95.3% | 101% | 89.7% |  |
| Oc1ncnc2[nH]ncc12 [Allopurinol] (100 nM) | 98.1% | 94.6% | 103% | 86.5% | 98.8% | 109% | 101% | 113% | 104% |  | 103% | 89.3% | 112% | 102% | 102% | 92.2% | 91.8% | 101% | 91.4% | 103% | 104% | 86.8% | 104% | 106% | 106% | 111% | 101% | 101% | 105% | 104% | 105% | 99.5% | 110% | 107% | 109% | 105% | 103% |
| CC1=C2C[C@H]3[C@@H](CC=C4C[C@@H](O)CC[C@@]43C)[C@@H]2CC[C@]12O[C@@H]1C[C@H](C)CN[C@H]1[C@H]2C [Cyclopamine] (100 nM) | 101% | 102% | 99.6% | 104% | 85.7% | 94.5% | 102% | 115% | 104% |  | 68.2% | 94.2% | 102% | 86% | 97.4% | 88.8% | 107% | 101% | 95% | 104% | 114% | 99.3% | 106% | 109% | 104% | 100% | 97.2% | 99.9% | 105% | 106% | 109% | 99.7% | 122% | 108% | 109% | 112% | 95.4% |
| Cc1sc2c(c1C)C(c1ccc(Cl)cc1)=N[C@@H](CC(=O)OC(C)(C)C)c1nnc(C)n1-2 [(+)JQ1] (100 nM) | 79% | 95.7% | 82.9% | 98.3% | 101% | 83.9% | 101% | 111% | 105% |  | 96.3% | 111% | 96.2% | 68.7% | 108% | 131% | 103% | 86.2% | 76% | 97.9% | 117% | 106% | 88.8% | 93.5% | 99.5% | 97.3% | 85% | 89.5% | 73.4% | 84.6% | 94.8% | 102% | 94.6% | 89.3% | 95% | 92.8% | 104% |
| C[C@]1(O)C[C@@H](c2nc(-c3ccc4ccc(-c5ccccc5)nc4c3)c3c(N)nccn32)C1 [Linsitinib] (100 nM) | 99.3% | 102% | 97.2% | 76.6% | 95.5% | 90.8% | 96.2% | 73% | 93.8% |  | 93.2% | 92.7% | 83.4% | 52.9% | 99.3% |  | 99.8% | 91.3% | 100% | 90.4% | 90% | 105% | 89.7% | 97.8% | 98.1% | 107% | 107% | 99.8% | 106% | 72.8% | 93.9% | 88.9% | 90.7% | 85.6% | 91.4% | 84.8% |  |
